The values that follow are results of earlier work, collected in patent publication EP2899264B1, “EMULSION FOR MICROBIAL GROWTH, METHOD FOR GROWING MICROORGANISMS BY USING SAID EMULSION, AND METHOD FOR PRODUCING MICROBIAL METABOLITE” (Kaneka Corporation, priority 2012, dated 2014).

In one data set the test system is microorganisms. The settings on record: used as emulsifier.
The subject of the next data set is Aeromonas hydrophila. Conditions: sole carbon source.
For data set [1] the following is noted: for concentration at which the acid aggregates: in water.
In data set [2] the test system is Ralstonia eutropha (currently classified as Cupriavidus necator). The settings on record: sole carbon source.

For `CCCCCCCCCCCCOS(=O)(=O)[O-].[Na+]` [SDS], the “effect on growth of microorganisms” value with microorganisms is “inhibit growth of microorganisms”.

`CCCCCCCCCCCC(=O)O` [lauric acid]: in the data set on Aeromonas hydrophila, the dry cell weight entry is “about 8 g/L”. Also, the water solubility in data set [1] was not above 100 µg/mL. In addition, in data set [2], the PHA productivity is not above 1 g/L.

Consider `CCCCCCCCCCCCCC(=O)O` [myristic acid], for which, in data set [2], the PHA productivity is listed as not above 1 g/L.

Take `CCCCCCCCCCCCCCCC(=O)O` [palmitic acid]: in data set [1], the “concentration at which the acid aggregates” value was not above 1000 nM.

Take `CCCCCCCCCCCCCCCCCC(=O)O` [stearic acid]: the “concentration at which the acid aggregates” value in data set [1] was not above 1000 nM.

As for Triton X-100, the “effect on growth of microorganisms” value in the data set on microorganisms is on record as “inhibit growth of microorganisms”.
